Assay results as given in BindingDB's records for doi:10.1080/14756360500179333 (University of Karachi, 2005).

biological target: Tyrosinase (Agaricus bisporus); experiment: Tyrosinase inhibition assays were performed in a 96-well microplate format using SpectraMax 340 (Molecular Devices, CA, USA) microplate reader according to method developed earlier.; details: pH 6.8

| IC50 | Structure (SMILES) |
| --- | --- |
| 1.72 µM | Cc1ccc(CN2CCC(N3CCCCC3)CC2)cc1 [Tyrosinase Inhibitor, 4] |
| 29.9 µM | CC(=O)N1CCC(N2CCCCC2)CC1 |
| 8.76 µM | O=[N+]([O-])c1ccc(S(=O)(=O)N2CCC(N3CCCCC3)CC2)cc1 [Tyrosinase Inhibitor, 8] |

| Structure (SMILES) | IC50 |
| --- | --- |
| C1CCN(C2CCNCC2)CC1 [Tyrosinase Inhibitor, 1] | 111 µM |
